The target of experiment [1] is T1, Cyclin Dependent Kinase 1/Cyclin A2 (CDK1-cycA2) (Homo sapiens, UniProt P06493).
T1 construct: purchased ProQinase 0134-0054-1
In words: CDK1-cycA2 TR-FRET (Lance) enzyme assay. In kind it is biochemical. As to conditions: for Ki: enzymatic assay; for FS CDK1/CDK2: fold selectivity, enzymatic Ki ratio. The procedure, abridged:
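Human CDK1/cyclin A2 pre-incubated 30 min with compound dose responses in 50 mM HEPES pH 7.5, 10 mM MgCl2, 2 mM TCEP, 0.05% BGG, 0.01% Brij 35. Reaction quenched with EDTA (15 mM final); TR-FRET readout using Eu-anti-phospho-4E-BP1, acceptor/donor ratio. Inhibition constants from Morrison equation.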
In general terms: Time-resolved FRET reads energy transfer from a long-lived donor to a nearby acceptor.

A further experiment has as its system HCT116 cells. In words: p-H3 HCT-116 mitotic release cell proliferation assay (cellular CDK1). As to conditions: for IC50: Homo sapiens, HCT-116, cellular assay, read-out: CDK1 p-H3 IC50; for IC50 / FS p-H3/OVISE: Table P; for FS p-H3/OVISE: fold selectivity, cellular IC50 ratio (CDK1 over CDK2). In kind it is cell-based. As for the experimental part:
Inhibition of cellular CDK1 determined by release of cells from nocodazole-induced mitotic arrest, as measured by decrease in phospho-Histone H3. Histone H3 (Ser 10) level is detected in cell lysates by producing a Fluorescence Resonance Energy Transfer (FRET) signal between two antibodies, Phospho-Histone H3 Cryptate (acting as the donor) and Phospho-Histone H3 d2 (acting as the acceptor).
Plates are allowed to rest overnight at 37° C./5% CO2. The following morning, nocodazole is diluted in complete medium, and 5 μL is added to each test well and positive control well for a final concentration of 500 nM. Plates are then incubated for 16 hours at 37° C./5% CO2. […] 10 μL of diluted compound is then transferred to the cell plate (final DMSO concentration 0.1%). Cell plates are then incubated for 4 hours in 37° C. 5% CO2. A cell lysis buffer is prepared on ice using reagents from the Phospho-Histone H3 (Ser10) cellular kit (Cisbio-64HH3PEG). Supernatant is discarded from the cell plate and 80 μL of the supplemented cell lysis buffer (1:99 dilution of the Blocking Reagent and the 1× cell lysis buffer provided in the kit) is added to each of the experimental wells. The cell lysis reaction is allowed to proceed at room temperature while shaking vigorously for 30 minutes. The 384-well HTRF (Homogeneous Time Resolved Fluorescence) plate is prepared by adding 2 μL of each diluted antibody (Phospho-Histone H3 Cryptate antibody and Phospho-Histone H3 d2 antibody diluted 19:1 in a detection buffer) and 12 μL of the supplemented cell lysis buffer to each well in the HTRF plate. 4 μL of the cell lysate is added to the prepared HTRF plate which is then sealed and the reaction is allowed to proceed for a minimum of 2 hours at room temperature.

Experiment [2] addresses T2, Cyclin Dependent Kinase 4/Cyclin D3 (CDK4-cycD3) (Homo sapiens, UniProt P11802).
T2 construct: purchased Carna Biosciences 04-105
In words: CDK4-cycD3 TR-FRET (LANCE) enzyme assay. In kind it is biochemical. Conditions: for Ki: enzymatic assay; for FS CDK4/CDK2: fold selectivity, enzymatic Ki ratio. The essentials: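 Compound dose responses pre-incubated 30 min with enzyme mix in 50 mM HEPES pH 7.5, 10 mM MgCl2, 2 mM TCEP, 0.05% BGG, 0.01% Brij 35. Reaction quenched with EDTA (15 mM final); Eu-anti-phospho-4E-BP1 TR-FRET detection, acceptor/donor ratio. Ki derived by Morrison equation.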

Experiment [3] addresses T3, Cyclin Dependent Kinase 2/Cyclin E1 (CDK2-cycE1) (Homo sapiens, UniProt P24941).
T3 construct: purchased ProQinase 0050-0055-1
The experiment can be described thus: CDK2-cycE1 TR-FRET (LANCE) enzyme assay. In kind it is biochemical. Conditions: for FS CDK1/CDK2 / FS CDK4/CDK2: fold selectivity; for FS CDK1/CDK2: enzymatic CDK1 Ki over CDK2 Ki; for FS CDK4/CDK2: enzymatic CDK4 Ki over CDK2 Ki. The procedure, abridged: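 Compound dose responses pre-incubated 30 min with CDK2-cycE1 in 50 mM HEPES pH 7.5, 10 mM MgCl2, 2 mM TCEP, 0.05% BGG, 0.01% Brij 35. Reaction quenched with EDTA (15 mM final), phospho-MBP detected by Eu-anti-phospho-MBP TR-FRET (acceptor/donor ratio). Inhibition constants from Morrison equation.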

For experiment [4], the system named is OVISE (JCRB1043, CCNE1-amplified). The experiment can be described thus: OVISE EdU incorporation cell proliferation assay (CDK2-dependent). As to conditions: for IC50: cellular assay, read-out: CDK2 OVISE IC50; for FS SKOV-3/OVISE: fold selectivity, cellular SKOV-3 IC50 over OVISE IC50. In kind it is cell-based. The essentials: (§1)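 Cells in RPMI/10% FBS dosed with compound (0.5% DMSO final) for 16 h at 37 °C, 5% CO2, then EdU 0.5 μM final for 8 h before fixation and imaging. IC50 from 4-parameter logistic fit of EdU-positive cell fraction versus dose.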

The subject of another experiment is SKOV-3 (ATCC HTB-77). In words: SKOV-3 EdU incorporation cell proliferation assay (CDK4/6-dependent). In kind it is cell-based. As to conditions: for IC50: Homo sapiens, cellular assay, read-out: CDK4/6 SKOV-3 IC50; for FS SKOV-3/OVISE: fold selectivity, cellular IC50 ratio (CDK4/6 over CDK2). The procedure, abridged: as §1
The mark [5] stands for this setting: read-out: CDK2 activity / potency (enzymatic assay).
[6] abbreviates: Table O, enzymatic assay, read-out: CDK2 Ki.

Where two headings read alike, the source gives them in different places.

T2 sequence (P11802 whole entry): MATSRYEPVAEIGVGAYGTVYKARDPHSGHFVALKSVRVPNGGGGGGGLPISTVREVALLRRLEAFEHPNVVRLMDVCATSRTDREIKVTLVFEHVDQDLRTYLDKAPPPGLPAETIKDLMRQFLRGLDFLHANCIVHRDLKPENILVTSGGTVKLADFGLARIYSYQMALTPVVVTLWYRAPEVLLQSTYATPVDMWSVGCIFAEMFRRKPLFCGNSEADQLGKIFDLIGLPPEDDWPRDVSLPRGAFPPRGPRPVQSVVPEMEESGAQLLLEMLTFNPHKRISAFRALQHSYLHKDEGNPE
T2 sequence (P30281 whole entry partner): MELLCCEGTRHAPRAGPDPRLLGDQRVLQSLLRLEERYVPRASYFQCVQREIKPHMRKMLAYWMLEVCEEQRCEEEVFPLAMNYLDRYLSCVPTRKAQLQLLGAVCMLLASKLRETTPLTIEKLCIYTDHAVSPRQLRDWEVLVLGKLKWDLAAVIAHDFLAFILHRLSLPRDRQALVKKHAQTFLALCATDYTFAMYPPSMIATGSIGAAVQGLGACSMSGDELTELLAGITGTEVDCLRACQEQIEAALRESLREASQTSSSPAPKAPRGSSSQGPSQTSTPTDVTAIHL
T1 sequence (P06493 whole entry): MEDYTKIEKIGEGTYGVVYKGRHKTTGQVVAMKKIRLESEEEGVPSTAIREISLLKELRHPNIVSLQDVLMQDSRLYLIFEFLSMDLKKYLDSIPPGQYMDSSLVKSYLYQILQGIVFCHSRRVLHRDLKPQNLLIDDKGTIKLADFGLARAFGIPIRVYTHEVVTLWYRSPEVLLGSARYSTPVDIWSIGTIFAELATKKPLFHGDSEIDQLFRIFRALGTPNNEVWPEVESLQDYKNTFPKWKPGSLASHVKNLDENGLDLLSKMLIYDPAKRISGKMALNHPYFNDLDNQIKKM
T1 sequence (P20248 whole entry partner): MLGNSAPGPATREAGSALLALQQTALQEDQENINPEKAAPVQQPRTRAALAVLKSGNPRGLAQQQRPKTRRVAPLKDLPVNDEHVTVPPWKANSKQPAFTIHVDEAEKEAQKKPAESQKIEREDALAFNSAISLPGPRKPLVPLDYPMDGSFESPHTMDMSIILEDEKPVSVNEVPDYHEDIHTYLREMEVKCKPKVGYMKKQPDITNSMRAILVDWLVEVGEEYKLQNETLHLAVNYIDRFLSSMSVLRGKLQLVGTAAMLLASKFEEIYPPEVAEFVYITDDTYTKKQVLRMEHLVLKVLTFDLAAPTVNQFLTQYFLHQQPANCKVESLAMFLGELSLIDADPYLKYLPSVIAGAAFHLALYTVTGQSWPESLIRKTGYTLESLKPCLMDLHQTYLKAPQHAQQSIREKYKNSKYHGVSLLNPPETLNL

Regarding `CC(C)(C)NC(=O)O[C@@H]1CC[C@H](c2cc(NC(=O)Cc3ccnnc3)n[nH]2)C1` [Comparator A, reference compound], the Ki was found to be 9.1 nM in experiment [1] (Table P), 38 nM in experiment [2] (Table P) and 0.17 nM in experiment [3] (setting [5]). In addition, the “FS CDK1/CDK2” value in experiment [1] (Table P) is 54. For the same compound, in the experiment on HCT116 cells, the “pH3/OVISE fold selectivity (CDK1 over CDK2, cellular assay data)” value amounted to 0.78 fold. Also, the IC50 in the experiment on HCT116 cells turned out to be 31 nM; in experiment [4] (Table P), 40 nM; with SKOV-3 (ATCC HTB-77) (SK-OV-3, Table P) it was 1700 nM. Besides, the “FS p-H3/OVISE” value with HCT116 cells is 0.78. The “FS CDK4/CDK2” value in experiment [2] (Table P) was found to be 224. Besides, the “FS SKOV-3/OVISE” value with SKOV-3 (ATCC HTB-77) (Table P) came out at 43.

Take `CC(C)(C)NC(=O)O[C@@H]1CC[C@H](c2cc(NC(=O)c3ccnnc3)n[nH]2)C1` [Comparator B, reference compound]: in experiment [1] (Table P), the Ki stood at 32 nM and the “FS CDK1/CDK2” value is 32. Further, in the experiment on HCT116 cells, the “pH3/OVISE fold selectivity (CDK1 over CDK2, cellular assay data)” value was 0.31 fold; the IC50 worked out at 43 nM; the “FS p-H3/OVISE” value was 0.31. For the same compound, in experiment [2] (Table P), the Ki was found to be 250 nM and the “FS CDK4/CDK2” value is 250. The Ki in experiment [3] (setting [5]) worked out at 1 nM. Further, in experiment [4] (Table P), the IC50 turned out to be 140 nM. For the same compound, the IC50 in the experiment on SKOV-3 (ATCC HTB-77) (SK-OV-3, Table P) worked out at 6700 nM. Moreover, in the experiment on SKOV-3 (ATCC HTB-77) (Table P), the “FS SKOV-3/OVISE” value worked out at 48.

Consider `Cc1ncccc1Nc1cc([C@H]2CC[C@@H](OC(=O)N[C@H]3CCN(C)C3)C2)[nH]n1` [Example 7C, (1R,3S)-3-(3-((2-methylpyridin-3-yl)amino)-1H-pyrazol-5-yl)cyclopentyl ((S)-1-methylpyrrolidin-3-yl)carbamate], for which the Ki in experiment [1] (Table O) turned out to be 3500 nM; in experiment [2] (Table O), 4200 nM; in experiment [3] (setting [6]) it was 260 nM. In addition, the “FS CDK1/CDK2” value in experiment [3] (Table O) was found to be 13. Moreover, the “FS CDK4/CDK2” value in experiment [3] (Table O) worked out at 16. The IC50 in experiment [4] (Table O) was 8000 nM; in the experiment with SKOV-3 (ATCC HTB-77) (SK-OV-3, Table O), > 20000 nM. Also, the “FS SKOV-3/OVISE” value in experiment [4] (Table O) is listed as >2.5.

As to `Cc1ncccc1Nc1cc([C@H]2CC[C@@H](OC(=O)NC3CC(O)C3)C2)[nH]n1` (stereo partly drawn) [Example 7D, (1R,3S)-3-(3-((2-methylpyridin-3-yl)amino)-1H-pyrazol-5-yl)cyclopentyl ((1s,3s)-3-hydroxycyclobutyl)carbamate], the results for the Ki in experiment [1] (Table O), in experiment [2] (Table O) and in experiment [3] (setting [6]) were 370 nM, 1200 nM and 23 nM, respectively. The “FS CDK1/CDK2” value in experiment [3] (Table O) came to 16. For the same compound, in experiment [3] (Table O), the “FS CDK4/CDK2” value came out at 52. The IC50 in experiment [4] (Table O) is 1600 nM; with SKOV-3 (ATCC HTB-77) (SK-OV-3, Table O), > 20000 nM. Further, the “FS SKOV-3/OVISE” value in experiment [4] (Table O) is reported as >13.

Consider `Cc1cc(Nc2cc([C@H]3CC[C@@H](OC(=O)NC45CC(C4)C5)C3)[nH]n2)c(C)nn1` [Example 9D, (1R,3S)-3-(3-((3,6-dimethylpyridazin-4-yl)amino)-1H-pyrazol-5-yl)cyclopentyl bicyclo[1.1.1]pentan-1-ylcarbamate], for which the Ki came out at 340 nM in experiment [1] (Table O), 6000 nM in experiment [2] (Table O) and 12 nM in experiment [3] (setting [6]). The “FS CDK1/CDK2” value in experiment [3] (Table O) is listed as 28. For the same compound, the “FS CDK4/CDK2” value in experiment [3] (Table O) was 500. The IC50 in experiment [4] (Table O) was 5000 nM; with SKOV-3 (ATCC HTB-77) (SK-OV-3, Table O) it was > 20000 nM. In experiment [4] (Table O), the “FS SKOV-3/OVISE” value is recorded as >4.

Regarding `CNC(=O)c1ncc(Nc2cc([C@H]3CC[C@@H](OC(=O)NC45CC(C4)C5)C3)[nH]n2)c(C)n1` [Example 9F, (1R,3S)-3-(3-((4-methyl-2-(methylcarbamoyl)pyrimidin-5-yl)amino)-1H-pyrazol-5-yl)cyclopentyl bicyclo[1.1.1]pentan-1-ylcarbamate], the Ki in experiment [1] (Table O) turned out to be 80 nM; in experiment [2] (Table O) it was 460 nM; in experiment [3] (setting [6]), 5 nM. For the same compound, the “FS CDK1/CDK2” value in experiment [3] (Table O) is on record as 16. The “FS CDK4/CDK2” value in experiment [3] (Table O) was determined as 92. Besides, the IC50 in experiment [4] (Table O) is 1200 nM; with SKOV-3 (ATCC HTB-77) (SK-OV-3, Table O), > 20000 nM. For the same compound, the “FS SKOV-3/OVISE” value in experiment [4] (Table O) was >17.

`Cc1cnccc1Nc1cc([C@H]2CC[C@@H](OC(=O)NC34CC(C3)C4)C2)[nH]n1` [Example 9G, (1R,3S)-3-(3-((3-methylpyridin-4-yl)amino)-1H-pyrazol-5-yl)cyclopentyl bicyclo[1.1.1]pentan-1-ylcarbamate]: the Ki was determined as 770 nM in experiment [1] (Table O), 1300 nM in experiment [2] (Table O) and 12 nM in experiment [3] (setting [6]). In experiment [3] (Table O), the “FS CDK1/CDK2” value was 64. The “FS CDK4/CDK2” value in experiment [3] (Table O) is 110. Also, the IC50 in experiment [4] (Table O) worked out at 340 nM; in the experiment with SKOV-3 (ATCC HTB-77) (SK-OV-3, Table O), 15000 nM. For the same compound, the “FS SKOV-3/OVISE” value in experiment [4] (Table O) was 44.

For `COc1cc(=O)n(C)cc1Nc1cc([C@H]2CC[C@@H](OC(=O)NC34CC(C3)C4)C2)[nH]n1` [Example 10, (1R,3S)-3-(3-((4-methoxy-1-methyl-6-oxo-1,6-dihydropyridin-3-yl)amino)-1H-pyrazol-5-yl)cyclopentyl bicyclo[1.1.1]pentan-1-ylcarbamate], the Ki was 5100 nM in experiment [1] (Table O), > 50000 nM in experiment [2] (Table O) and 130 nM in experiment [3] (setting [6]). In addition, in experiment [3] (Table O), the “FS CDK1/CDK2” value was 39. For the same compound, the “FS CDK4/CDK2” value in experiment [3] (Table O) amounted to 385. For the same compound, the IC50 is 16000 nM in experiment [4] (Table O) and > 20000 nM in the experiment on SKOV-3 (ATCC HTB-77) (SK-OV-3, Table O). In addition, the “FS SKOV-3/OVISE” value in experiment [4] (Table O) was >1.3.

Take `O=C(NC12CC(C1)C2)O[C@@H]1CC[C@H](c2cc(Nc3ccnnc3C3CC3)n[nH]2)C1` [Example 11, (1R,3S)-3-(3-((3-cyclopropylpyridazin-4-yl)amino)-1H-pyrazol-5-yl)cyclopentyl bicyclo[1.1.1]pentan-1-ylcarbamate]: the Ki in experiment [1] (Table O) worked out at 890 nM; in experiment [2] (Table O), 1100 nM; in experiment [3] (setting [6]) it was 12 nM. Further, in experiment [3] (Table O), the “FS CDK1/CDK2” value is reported as 74. The “FS CDK4/CDK2” value in experiment [3] (Table O) was found to be 92. Moreover, the IC50 in experiment [4] (Table O) is 2600 nM; in the experiment on SKOV-3 (ATCC HTB-77) (SK-OV-3, Table O), > 20000 nM. In experiment [4] (Table O), the “FS SKOV-3/OVISE” value is >7.7.

These data come from US20240425478A1, “CYCLOPENTYLPYRAZOLE CDK2 INHIBITORS” (Genentech, Inc., priority 2021, published 2024).
